In US4711885A, “N-(N'-phenylpiperazine)-alkyl triazole compounds having anxiolytic and analgesic properties” (Adir et Compagnie, priority 1985, dated 1987):

Key:
Format in all cases: in vivo
mice [1] = assay: four plates test according to Aron et al. (anxiolytic activity, number of shocks received); details: for % number of shocks received: mice, N = 10; for anxiolytic activity in the 4 plates test: in words
Source text: (§1) The anxiolytic activity was studied, for its part, by means of the four plates test according to Aron C., Simon P., Larousse C. and Boissier J. R., Neuropharmacology, 10, 459-469, (1971), the conflict test according to Vogel J. R., Beer B., Clody D. E., Physchopharmacol.

mice [2] = assay: phenylbenzoquinone test according to Siegmund (analgesic activity, contractions of the abdomen); details: for ED50: Mus musculus, po, mice; for analgesic activity in the Siegmund test: in words
Source text: (§2) The analgesic activity of the compounds of the present invention was studied by means of the tail-flick test according to D'Amour F. E. and Smith D. L., Journal of pharmacology and experimental therapeutics, 72, 74-79 (1941), the hot plate test according to Woolfe G. and MacDonald A. D., Journal of pharmacology and experimental therapeutics, 80, 300-307 (1944) and the phenylbenzoquinone test according to Siegmund E., Cadmus R. and Lu G, Proc. Soc. […]. Biol. Med. 95, 729-731 (1957).

mice [3] = assay: hot plate test according to Woolfe and MacDonald (analgesic activity, licking time); details: Mus musculus, ip
Source text: as §2

mice [4] = assay: tail-flick test according to D'Amour and Smith (analgesic activity, reaction time); details: for ED50: Mus musculus, ip, mice
Source text: The analgesic activity of the compounds of the present invention was studied by means of the tail-flick test according to D'Amour F. E. and Smith D. L., Journal of pharmacology and experimental therapeutics, 72, 74-79 (1941), the hot plate test according to Woolfe G. and MacDonald A. D., Journal of pharmacology and experimental therapeutics, 80, 300-307 (1944) and the phenylbenzoquinone test according to Siegmund E., Cadmus R. and Lu G, Proc. Soc. Exptle. Biol. Med. 95, 729-731 (1957).
By way of example, the following table lists the results of the analgesic effects observed in mice for several representative products of the invention:
Note: The mean effective dose (ED50) was calculated:
in the tailflick test from the percentage variations in the reaction time
(in seconds) by comparison with the control batch.

rats = assay: Mac Millan punishment test, punishment operating conditioning (anxiolytic activity, number of punished responses); details: for percentage variation in the number of punished responses: rats, N ≥ 9; for anxiolytic activity in the conflict test according to MacMillan: in words
Source text: as §1, with “Physchopharmacol. 21, 1-7, (1971) and the punishment test according to Mac Millan D. E., J. Exp. Anal. Behav, 19, 133-145 (1973).” for “Physchopharmacol.”
PUNISHMENT OPERATING CONDITIONING (RATS)
PERCENTAGE VARIATION IN THE NUMBER
OF PUNISHED RESPONSES (N ≥ 9)
S = Significant modification

## FC(F)(F)c1cccc(N2CCN(CCc3nnc4n3CC3CCCC43)CC2)c1 (centres unmarked) [Example 17b]
Mice [1]; 2.5 mg/kg i.p.
  % number of shocks received: +15%
Mice [1]; 5 mg/kg i.p.
  % number of shocks received: +34%
Mice [1]; 10 mg/kg i.p.
  % number of shocks received: +53%
Mice [1]; 25 mg/kg i.p.
  % number of shocks received: +27%
Mice [1]
  anxiolytic activity in the 4 plates test: very significant anxiolytic activity

## Clc1cccc(N2CCN(CCc3nnc4n3CC3CCCCC43)CC2)c1 (stereo not drawn) [Example 2, 9-{β-N'-[N-(metachlorophenyl)piperazine]ethyl}-[7H]-2b,3,4,5,6,6a-hexahydrotriazolo[3,4-a]cyclohexa(c)pyrrole]
Mice [2]
  ED50: 8.7 mg/kg
  analgesic activity in the Siegmund test: very significant analgesic activiy
Mice [3]
  ED50: > 50 mg/kg
Mice [4]
  ED50: > 50 mg/kg

## FC(F)(F)c1cccc(N2CCN(CCc3nnc4n3C[C@H]3CCCC[C@H]3C4)CC2)c1 (relative stereo) [Example 16]
Mice [2]
  ED50: 17 mg/kg
Mice [3]
  ED50: 24.3 mg/kg
Mice [4]
  ED50: > 50 mg/kg
Mice [1]; 2.5 mg/kg i.p.
  % number of shocks received: -12%
Mice [1]; 5 mg/kg i.p.
  % number of shocks received: +2%
Mice [1]; 10 mg/kg i.p.
  % number of shocks received: +32%
Mice [1]; 25 mg/kg i.p.
  % number of shocks received: +5%
Mice [1]
  anxiolytic activity in the 4 plates test: very significant anxiolytic activity
rats; 2.5 mg/kg i.p.
  percentage variation in the number of punished responses: +5.4%
rats; 5 mg/kg i.p.
  percentage variation in the number of punished responses: +42.2%
rats; 10 mg/kg i.p.
  percentage variation in the number of punished responses: +125.9%
rats; 20 mg/kg i.p.
  percentage variation in the number of punished responses: -60.7%
rats
  anxiolytic activity in the conflict test according to MacMillan: very significant anxiolytic activity

## FC(F)(F)c1cccc(N2CCN(CCc3nnc4n3CC3CCCC43)CC2)c1 (centres unmarked) [Example 17a]
Mice [2]
  ED50: 5.82 mg/kg
Mice [3]
  ED50: 21.3 mg/kg
Mice [4]
  ED50: > 50 mg/kg
Mice [1]; 2.5 mg/kg i.p.
  % number of shocks received: +18%
Mice [1]; 5 mg/kg i.p.
  % number of shocks received: +26%
Mice [1]; 10 mg/kg i.p.
  % number of shocks received: +35%
Mice [1]; 25 mg/kg i.p.
  % number of shocks received: +61%
Mice [1]
  anxiolytic activity in the 4 plates test: very significant anxiolytic activity
rats; 2.5 mg/kg i.p.
  percentage variation in the number of punished responses: +47.8%
rats; 5 mg/kg i.p.
  percentage variation in the number of punished responses: +33.6%
rats; 10 mg/kg i.p.
  percentage variation in the number of punished responses: +42.6%
rats; 20 mg/kg i.p.
  percentage variation in the number of punished responses: -70.3%
rats
  anxiolytic activity in the conflict test according to MacMillan: very significant anxiolytic activity

## Clc1cccc(N2CCN(CCc3nnc4n3[C@H]3CCCC[C@@H]3CC4)CC2)c1 (relative stereo) [Example 12]
Mice [2]
  ED50: 25.7 mg/kg
Mice [3]
  ED50: 25.3 mg/kg
Mice [4]; 50 mg/kg i.p., in words
  activity in the tail-flick test: active
Mice [4]
  ED50: 30.7 mg/kg
Mice [1]; 2.5 mg/kg i.p.
  % number of shocks received: +38%
Mice [1]; 5 mg/kg i.p.
  % number of shocks received: +15%
Mice [1]; 10 mg/kg i.p.
  % number of shocks received: +20%
Mice [1]; 25 mg/kg i.p.
  % number of shocks received: +2%
Mice [1]
  anxiolytic activity in the 4 plates test: very significant anxiolytic activity
rats; 2.5 mg/kg i.p.
  percentage variation in the number of punished responses: -33.5%
rats; 5 mg/kg i.p.
  percentage variation in the number of punished responses: -24%
rats; 10 mg/kg i.p.
  percentage variation in the number of punished responses: -51.3%
rats; 20 mg/kg i.p.
  percentage variation in the number of punished responses: -75%

## Clc1cccc(N2CCN(CCCc3nnc4n3[C@H]3CCCC[C@H]3CC4)CC2)c1 (relative stereo) [Example 42]
Mice [2]
  ED50: 11.4 mg/kg
Mice [4]
  ED50: > 50 mg/kg

## Clc1cccc(N2CCN(CCCc3nnc4n3C[C@H]3CCCC[C@H]3C4)CC2)c1 (relative stereo) [Example 40]
Mice [2]
  ED50: 7.5 mg/kg
  analgesic activity in the Siegmund test: very significant analgesic activiy
Mice [3]
  ED50: 53.9 mg/kg
Mice [4]
  ED50: > 50 mg/kg

## FC(F)(F)c1cccc(N2CCN(CCCc3nnc4n3C[C@H]3CCCC[C@H]3C4)CC2)c1 (relative stereo) [Example 3, Cis-10{γ-N-[N'(metatrifluoromethylphenyl)piperazine]n-propyl}-3,3a,4,5,6,7,7a,8-octahydrotriazolo[4,3-b]isoquinoline]
Mice [2]
  ED50: 16 mg/kg
Mice [3]
  ED50: 19.8 mg/kg
Mice [4]
  ED50: > 50 mg/kg
Mice [1]; 2.5 mg/kg i.p.
  % number of shocks received: +38%
Mice [1]; 5 mg/kg i.p.
  % number of shocks received: +44%
Mice [1]; 10 mg/kg i.p.
  % number of shocks received: +48%
Mice [1]; 25 mg/kg i.p.
  % number of shocks received: 18%
Mice [1]
  anxiolytic activity in the 4 plates test: very significant anxiolytic activity

## FC(F)(F)c1cccc(N2CCN(CCc3nnc4n3CC3CCCCC43)CC2)c1 (centres unmarked) [Example 36]
Mice [2]
  ED50: 4.3 mg/kg
  analgesic activity in the Siegmund test: very significant analgesic activiy
Mice [3]
  ED50: 25 to 50 mg/kg
Mice [4]
  ED50: > 50 mg/kg
Mice [1]; 2.5 mg/kg i.p.
  % number of shocks received: -12%
Mice [1]; 5 mg/kg i.p.
  % number of shocks received: -4%
Mice [1]; 10 mg/kg i.p.
  % number of shocks received: -4%
Mice [1]; 25 mg/kg i.p.
  % number of shocks received: +39%
Mice [1]
  anxiolytic activity in the 4 plates test: very significant anxiolytic activity
